Source: paper PMC10266417, “LeishIF3d is a non-canonical cap-binding protein in Leishmania” (Frontiers in Molecular Biosciences, 2023)

How the values were obtained:
LeishIF4E1 = target: T1, LeishIF4E1 (Leishmania mexicana, UniProt E9AZ65); assay: m7GTP-agarose affinity pull-down, western blot with LeishIF4E1-specific antibodies; format: biochemical; settings: L. mexicana extract; m7GTP immobilised on agarose; 20 mM HEPES pH 7.4, 50 mM NaCl; 100 uM GTP wash, 200 uM m7GTP elution; positive control
T1 construct: gene LMXM_27_1620; endogenous untagged protein in L. mexicana promastigote extract, detected with specific antibodies
T1 sequence (E9AZ65 1-213): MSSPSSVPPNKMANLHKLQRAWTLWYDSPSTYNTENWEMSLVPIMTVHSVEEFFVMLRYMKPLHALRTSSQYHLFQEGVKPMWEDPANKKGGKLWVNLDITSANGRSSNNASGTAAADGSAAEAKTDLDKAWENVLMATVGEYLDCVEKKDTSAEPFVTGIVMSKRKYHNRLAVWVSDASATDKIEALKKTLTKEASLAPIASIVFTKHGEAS

LeishIF3d = target: T2, LeishIF3d (Leishmania mexicana, UniProt E9B178); assay: m7GTP-agarose affinity binding of purified His-tagged protein, elution with free m7GTP, anti-His western blot; settings: m7GTP immobilised on agarose; eluted with free m7GTP
T2 construct: gene LMXM_29_3040; full ORF (1596 bp); recombinant His-tagged from E. coli BL21 (pET52, Ni-NTA); mutants C-terminally SBP-tagged, expressed episomally in L. mexicana
T2 sequence (E9B178 1-531): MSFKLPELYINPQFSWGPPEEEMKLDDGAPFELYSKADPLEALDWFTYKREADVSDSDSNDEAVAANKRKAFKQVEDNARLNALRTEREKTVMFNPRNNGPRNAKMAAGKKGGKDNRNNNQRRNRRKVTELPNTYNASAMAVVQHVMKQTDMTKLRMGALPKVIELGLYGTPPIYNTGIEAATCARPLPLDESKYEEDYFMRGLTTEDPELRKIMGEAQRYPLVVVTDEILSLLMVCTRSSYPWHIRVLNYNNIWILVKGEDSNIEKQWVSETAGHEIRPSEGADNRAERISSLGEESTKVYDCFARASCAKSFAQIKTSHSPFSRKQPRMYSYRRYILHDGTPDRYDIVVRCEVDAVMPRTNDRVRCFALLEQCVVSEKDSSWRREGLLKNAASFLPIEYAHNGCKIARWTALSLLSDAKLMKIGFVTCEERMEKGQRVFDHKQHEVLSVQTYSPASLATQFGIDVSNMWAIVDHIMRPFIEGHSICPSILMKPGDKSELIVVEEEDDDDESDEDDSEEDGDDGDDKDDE

## C[n+]1cn([C@@H]2O[C@H](COP(=O)(O)OP(=O)(O)OP(=O)(O)O)[C@@H](O)[C@H]2O)c2nc(N)[nH]c(=O)c21 [m^7GTP]
LeishIF4E1
  m7GTP-agarose affinity pull-down, western blot with LeishIF4E1-specific antibodi: LeishIF3d could bind m^7GTP, as did the positive control of LeishIF4E1
LeishIF3d
  m7GTP-agarose affinity binding of purified His-tagged protein, elution with free: direct binding of recombinant His-tagged LeishIF3d to m^7GTP
